Laboratory results taken from the supplement of paper PMC10307832.

What was measured:
Assay in all cases: relative viability (nuclei count vs DMSO), 5 days (fraction); higher = more cells survive
NCI-H1651 = tested on: NCI-H1651
In short: (§1)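 Values are medians from duplicate plates. Each reflects relative viability, defined as the nuclei count of treated wells over that of vehicle wells. Lung cancer cell lines in 1536-well plates were pin-tool dosed one day after seeding with one drug alone or with a fixed anchor-drug dose plus five library-drug doses (not always all listed) in √10 steps, then fixed, stained and imaged at 4× after 5 days.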

NCI-H1648 = tested on: NCI-H1648
In short: as §1

NCI-H650 = tested on: NCI-H650
In short: as §1

NCI-H838 = tested on: NCI-H838
In short: as §1

NCI-H520 = tested on: NCI-H520
In short: as §1

PC-3 [JPC-3] = tested on: PC-3 [JPC-3]
In short: as §1

RERF-LC-KJ = tested on: RERF-LC-KJ
In short: as §1

NCI-H1944 = tested on: NCI-H1944
In short: as §1

Calu-6 = tested on: Calu-6
In short: as §1

NCI-H1299 = tested on: NCI-H1299
In short: as §1

A549 = tested on: A549
In short: as §1

NCI-H1703 = tested on: NCI-H1703
In short: as §1

EBC-1 = tested on: EBC-1
In short: as §1

IA-LM = tested on: IA-LM
In short: as §1

## CC(=O)O[C@@]12CO[C@@H]1C[C@H](O)[C@@]1(C)C(=O)[C@H](O)C3=C(C)[C@@H](OC(=O)[C@H](O)[C@@H](NC(=O)OC(C)(C)C)c4ccccc4)C[C@@](O)([C@@H](OC(=O)c4ccccc4)[C@H]21)C3(C)C [Docetaxel] + Nc1nc2[nH]cc(CCc3ccc(C(=O)N[C@@H](CCC(=O)O)C(=O)O)cc3)c2c(=O)[nH]1 [Pemetrexed] (partner 0.2 µM)
NCI-H1651; first compound 0.0002 µM
  relative viability: 0.443
NCI-H1651; first compound 0.000632 µM
  relative viability: 0.593
NCI-H1651; first compound 0.002 µM
  relative viability: 0.447
NCI-H1651; first compound 0.006325 µM
  relative viability: 0.175
NCI-H1648; first compound 0.0002 µM
  relative viability: 0.73
NCI-H1648; first compound 0.000632 µM
  relative viability: 0.758
NCI-H1648; first compound 0.002 µM
  relative viability: 0.386
NCI-H1648; first compound 0.006325 µM
  relative viability: 0.186
NCI-H1648; first compound 0.02 µM
  relative viability: 0.231
NCI-H650; first compound 0.0002 µM
  relative viability: 0.941
NCI-H650; first compound 0.000632 µM
  relative viability: 0.44
NCI-H650; first compound 0.002 µM
  relative viability: 0.393
NCI-H650; first compound 0.006325 µM
  relative viability: 0.237
NCI-H650; first compound 0.02 µM
  relative viability: 0.198
NCI-H838; first compound 0.0002 µM
  relative viability: 0.247
NCI-H838; first compound 0.000632 µM
  relative viability: 0.27
NCI-H838; first compound 0.002 µM
  relative viability: 0.22
NCI-H838; first compound 0.006325 µM
  relative viability: 0.157
NCI-H838; first compound 0.02 µM
  relative viability: 0.134
NCI-H520; first compound 0.0002 µM
  relative viability: 0.691
NCI-H520; first compound 0.000632 µM
  relative viability: 0.471
NCI-H520; first compound 0.002 µM
  relative viability: 0.316
NCI-H520; first compound 0.006325 µM
  relative viability: 0.207
NCI-H520; first compound 0.02 µM
  relative viability: 0.159
PC-3 [JPC-3]; first compound 0.0002 µM
  relative viability: 1.01
PC-3 [JPC-3]; first compound 0.000632 µM
  relative viability: 0.713
PC-3 [JPC-3]; first compound 0.002 µM
  relative viability: 0.513
PC-3 [JPC-3]; first compound 0.006325 µM
  relative viability: 0.265
PC-3 [JPC-3]; first compound 0.02 µM
  relative viability: 0.195
RERF-LC-KJ; first compound 0.0002 µM
  relative viability: 0.375
RERF-LC-KJ; first compound 0.000632 µM
  relative viability: 0.342
RERF-LC-KJ; first compound 0.002 µM
  relative viability: 0.297
RERF-LC-KJ; first compound 0.006325 µM
  relative viability: 0.173
RERF-LC-KJ; first compound 0.02 µM
  relative viability: 0.157
NCI-H1944; first compound 0.0002 µM
  relative viability: 0.619
NCI-H1944; first compound 0.000632 µM
  relative viability: 0.568
NCI-H1944; first compound 0.002 µM
  relative viability: 0.521
NCI-H1944; first compound 0.006325 µM
  relative viability: 0.248
NCI-H1944; first compound 0.02 µM
  relative viability: 0.118

## COc1cc2nccc(Oc3ccc(NC(=O)Nc4cc(C)on4)c(Cl)c3)c2cc1OC [Tivozanib] + C[C@@H](Oc1cc(-c2cnn(C3CCNCC3)c2)cnc1N)c1c(Cl)ccc(F)c1Cl [Crizotinib] (partner 1 µM)
NCI-H1651; first compound 0.005 µM
  relative viability: 0.896
NCI-H1651; first compound 0.01581 µM
  relative viability: 0.91
NCI-H1651; first compound 0.05 µM
  relative viability: 0.796
NCI-H1651; first compound 0.1581 µM
  relative viability: 0.84
NCI-H1651; first compound 0.5 µM
  relative viability: 0.92
Calu-6; first compound 0.005 µM
  relative viability: 0.778
Calu-6; first compound 0.01581 µM
  relative viability: 0.772
Calu-6; first compound 0.05 µM
  relative viability: 0.706
Calu-6; first compound 0.1581 µM
  relative viability: 0.839
Calu-6; first compound 0.5 µM
  relative viability: 0.711
NCI-H650; first compound 0.005 µM
  relative viability: 0.596
NCI-H650; first compound 0.01581 µM
  relative viability: 0.906
NCI-H650; first compound 0.05 µM
  relative viability: 0.891
NCI-H650; first compound 0.1581 µM
  relative viability: 0.696
NCI-H650; first compound 0.5 µM
  relative viability: 0.455
NCI-H1299; first compound 0.005 µM
  relative viability: 0.922
NCI-H1299; first compound 0.01581 µM
  relative viability: 0.971
NCI-H1299; first compound 0.05 µM
  relative viability: 0.968
NCI-H1299; first compound 0.1581 µM
  relative viability: 0.991
NCI-H1299; first compound 0.5 µM
  relative viability: 0.906
A549; first compound 0.005 µM
  relative viability: 0.765
A549; first compound 0.01581 µM
  relative viability: 0.793
A549; first compound 0.05 µM
  relative viability: 0.694
A549; first compound 0.1581 µM
  relative viability: 0.828
A549; first compound 0.5 µM
  relative viability: 0.652
NCI-H838; first compound 0.005 µM
  relative viability: 0.886
NCI-H838; first compound 0.01581 µM
  relative viability: 0.82
NCI-H838; first compound 0.05 µM
  relative viability: 0.857
NCI-H838; first compound 0.5 µM
  relative viability: 0.779
NCI-H520; first compound 0.005 µM
  relative viability: 0.822
NCI-H520; first compound 0.01581 µM
  relative viability: 0.827
NCI-H520; first compound 0.05 µM
  relative viability: 0.895
NCI-H520; first compound 0.1581 µM
  relative viability: 0.713
NCI-H520; first compound 0.5 µM
  relative viability: 0.603
PC-3 [JPC-3]; first compound 0.005 µM
  relative viability: 0.912
PC-3 [JPC-3]; first compound 0.01581 µM
  relative viability: 0.997
PC-3 [JPC-3]; first compound 0.05 µM
  relative viability: 0.991
PC-3 [JPC-3]; first compound 0.1581 µM
  relative viability: 1.02
PC-3 [JPC-3]; first compound 0.5 µM
  relative viability: 1.02
NCI-H1703; first compound 0.005 µM
  relative viability: 0.239
NCI-H1703; first compound 0.01581 µM
  relative viability: 0.194
NCI-H1703; first compound 0.05 µM
  relative viability: 0.163
NCI-H1703; first compound 0.1581 µM
  relative viability: 0.157
NCI-H1703; first compound 0.5 µM
  relative viability: 0.155
EBC-1; first compound 0.005 µM
  relative viability: 0.182
EBC-1; first compound 0.01581 µM
  relative viability: 0.186
EBC-1; first compound 0.05 µM
  relative viability: 0.211
EBC-1; first compound 0.1581 µM
  relative viability: 0.207
EBC-1; first compound 0.5 µM
  relative viability: 0.192
IA-LM; first compound 0.01581 µM
  relative viability: 0.716
IA-LM; first compound 0.05 µM
  relative viability: 1.04
IA-LM; first compound 0.1581 µM
  relative viability: 0.507
IA-LM; first compound 0.5 µM
  relative viability: 0.494
RERF-LC-KJ; first compound 0.005 µM
  relative viability: 0.771
RERF-LC-KJ; first compound 0.01581 µM
  relative viability: 0.81
RERF-LC-KJ; first compound 0.05 µM
  relative viability: 0.863
RERF-LC-KJ; first compound 0.1581 µM
  relative viability: 0.85
RERF-LC-KJ; first compound 0.5 µM
  relative viability: 0.747
NCI-H1944; first compound 0.005 µM
  relative viability: 1.13
NCI-H1944; first compound 0.01581 µM
  relative viability: 1.05
NCI-H1944; first compound 0.05 µM
  relative viability: 1.1
NCI-H1944; first compound 0.1581 µM
  relative viability: 1.02
NCI-H1944; first compound 0.5 µM
  relative viability: 1.28
